Laboratory results from patent publication EP0474874B1, “Maillard Reaction inhibitor compositions” (Senju Pharmaceutical Co., Ltd., priority 1990, dated 1991).

Columns and labels:
[1] = system: furosine formation; experiment: Inhibition of furosine formation (non-enzymatic glycosylation of BSA with glucose, HPLC); assay type: biochemical, bovine; conditions: 5 mM test compound, 20 mg/ml BSA, 50 mM glucose, 50 mM phosphate buffer pH 7.3, 4 weeks at 37 °C
Experimental: Sample solutions as shown below were aseptically prepared from bovine serum albumine (No. A-8022, Sigma)(hereinafter referred to as BSA), 50 mM phosphate buffer solution (pH 7.3) and the test compounds listed in Table 1 and aminoguanidine.
The sample solutions were kept for 4 weeks at 37 °C, and the amount of furosine which was formed by non-enzymatic glycosylation was determined by HPLC according to the method of Schleicher et al. [J. Clin. Biochem., 19:81-87 (1981).] Thus, the sample solutions after reaction were dialyzed, and aliquots of 1 ml were lyophylized and then hydrolyzed by the addition of 1 ml of 6 N hydrochloric acid followed by heating at 100 °C for 20 hours. After removal of hydrochloric acid by evaporation, 1 ml of water was added to each sample, and the samples were subjected to filtration using a filter with the pore size of 0.45 µm. The filtrate was used as the sample for HPLC. ODS-120T (Tosoh Corporation) was used for the column and 7 mM phosphoric acid solution was used as the eluant. The absorbance peak whose ratio of peak area at […] was 3.9/1 was regarded as the peak corresponding to furosine.
Upon the area of the peak of furosine of each sample, the inhibition rate of furosine formation by the test compound was calculated as follows. Inhibition rate (%)=(c-d)÷(c-n)×100 [formula] c; peak area of furosine of the control sample d; peak area of furosine of the test sample n; peak area of furosine of the normal sample

[2] = patient suffering from diabetes mellitus; cited from earlier work
[3] = system: Maillard's reaction; conditions: in vitro; cited from earlier work
[4] = system: AGE formation in arterial walls; conditions: diabetic rats, in vivo; cited from earlier work

| SMILES | Inhibition rate (%) [1] [%] | further results |
| --- | --- | --- |
| Nc1ccc(O)cc1C(=O)O [AB-1, 5-hydroxyanthranilic acid] | 94.1 | – |
| Nc1c(O)cccc1C(=O)O [AB-2, 3-hydroxyanthranilic acid] | 69.4 | – |
| Nc1cc([N+](=O)[O-])ccc1C(=O)O [AB-3, 4-nitroanthranilic acid] | 47.6 | – |
| Nc1ccc(O)c(C(=O)O)c1 [AB-4, 5-aminosalicylic acid] | 50.7 | – |
| Nc1ccc(C(=O)O)c(O)c1 [AB-5, 4-aminosalicylic acid] | 70.0 | adverse effect upon treatment [2]: developed hypoglycaemic coma |
| Nc1cccc(C(=O)O)c1O [AB-6, 3-aminosalicylic acid] | 53.4 | – |
| Nc1cc(C(=O)O)ccc1O [AB-7, 3-amino-4-hydroxybenzoic acid] | 60.4 | – |
| N=C(N)NN [aminoguanidine] | 8.0 | inhibition of Maillard's reaction [3]: inhibits Maillard's reaction in vitro; AGE formation in arterial walls [4]: suppresses AGE formation in arterial walls of diabetic rats in vivo |
